Two compounds from US12041933B1, “N-(pyrimidin-2-ylcarbamothioyl) benzamide as an eco-friendly insecticidal agent against Spodoptera littoralis (BOISD.)” (KING FAISAL UNIVERSITY, priority 2023, dated 2024) can be followed below.

≈ marks a conversion by molar mass, not a printed value. Like-named read-outs stand apart in the source and are kept apart here.

The test system of the test is cotton leafworm, S. littoralis. Nature of the test: Insecticidal bioassay screening (castor leaf dip), second and fourth instar larvae, laboratory strain. In kind it is in vivo. The note with it: for Toxicity index %: 72 hrs, Diflubenzuron's LC50/compound's LC50 × 100; for LC50: Spodoptera littoralis, foliar. How it is done: Five concentrations (200, 100, 50, 25, 12.5 ppm) were designed for this synthetic compound and the reference Diflubenzuron compound as the dynamic ingredients based on mg/L via diluting the commercial formulation.
In this experiment, castor leaves are immersed in each of the previously prepared concentrations of the components for 10 seconds and then left to dry for 60 minutes. Larvae of the second and fourth instars of each checked strain are prepared with treated leaves in gauze-covered glass containers for 72 hrs. An untreated control is made in which leaves are dipped in triton x-100 and distilled water only. Then the preserved leaves were removed & fresh, untreated leaves were provided for 72 hours. Three replicates (10 larvae each) were checked for each concentration. Daily inspection was carried out for all treatments and mortality percentages were recorded 3 days (72 hours) after treatment. The average mortality percentage was corrected employing Abbott's formula. The corrected mortality rate for each of the previously synthesized compounds is statistically calculated according to Finney (1970). Through this rate, the corresponding concentration test lines (LDP lines) are assessed.

Setting [1] is: 72 h, read-out: LC50 (mg/L) at 95%, 2nd instar larvae, after 72 hrs of treatment.
The mark [2] stands for this setting: 72 h, read-out: LC50 (mg/L) at 95%, 4th instar larvae, after 72 hrs of treatment.
The mark [3] stands for this setting: against Spodoptera littoralis under laboratory conditions, instar not stated.

In the case of `O=C(NC(=S)Nc1ncccn1)c1ccccc1` [Compound 3, N-(Pyrimidin-2-ylcarbamothioyl) benzamide], the Toxicity index % by setting is: (2nd instar larvae) 16.7%; (4th instar larvae) 22.8%. The LC50 is, setting by setting: (72 h, 4th instars of larvae, after 72 hours of treatment) about 631 mg/L (≈ 2440 µM); under setting [1], about 96.8 mg/L (≈ 375 µM); under setting [2], 631 mg/L (≈ 2440 µM); under setting [3], 96.8 mg/L (≈ 375 µM).

Turning to `O=C(NC(=O)c1c(F)cccc1F)Nc1ccc(Cl)cc1` [Diflubenzuron, reference compound], the Toxicity index % by setting is: (2nd instar larvae) 100%; (4th instar larvae) 100%. In addition, the LC50 under setting [1] was found to be 45.2 mg/L (≈ 145 µM), the LC50 under setting [2] stood at 144 mg/L (≈ 464 µM) and the LC50 under setting [3] is 45.2 mg/L (≈ 145 µM).
